Literature values in patent publication US7049120B2, “Regulation of human mrp5-like protein” (Bayer HealthCare AG, priority 2001, dated 2006).

Columns and labels:
[1] = target: T1, MRP5 (Homo sapiens, UniProt O15440); parameters: host or cells: polarized Madin-Darby canine kidney II (MDCK II) cells, transfected; settings: polarized MDCK II cells overexpressing human MRP5; Wijnholds et al., 2000
[2] = target: T1, MRP5; parameters: host or cells: polarized Madin-Darby canine kidney II (MDCK II) cells, transfected; settings: MDCK II cells transfected with human MRP5; Wijnholds et al., 2000
[3] = target: T1, MRP5; parameters: host or cells: V79 hamster lung fibroblasts, stably expressing; settings: MRP5 stably expressed in V79 hamster lung fibroblasts; Jedlitschsky et al., 2000

T1 sequence (O15440 whole entry): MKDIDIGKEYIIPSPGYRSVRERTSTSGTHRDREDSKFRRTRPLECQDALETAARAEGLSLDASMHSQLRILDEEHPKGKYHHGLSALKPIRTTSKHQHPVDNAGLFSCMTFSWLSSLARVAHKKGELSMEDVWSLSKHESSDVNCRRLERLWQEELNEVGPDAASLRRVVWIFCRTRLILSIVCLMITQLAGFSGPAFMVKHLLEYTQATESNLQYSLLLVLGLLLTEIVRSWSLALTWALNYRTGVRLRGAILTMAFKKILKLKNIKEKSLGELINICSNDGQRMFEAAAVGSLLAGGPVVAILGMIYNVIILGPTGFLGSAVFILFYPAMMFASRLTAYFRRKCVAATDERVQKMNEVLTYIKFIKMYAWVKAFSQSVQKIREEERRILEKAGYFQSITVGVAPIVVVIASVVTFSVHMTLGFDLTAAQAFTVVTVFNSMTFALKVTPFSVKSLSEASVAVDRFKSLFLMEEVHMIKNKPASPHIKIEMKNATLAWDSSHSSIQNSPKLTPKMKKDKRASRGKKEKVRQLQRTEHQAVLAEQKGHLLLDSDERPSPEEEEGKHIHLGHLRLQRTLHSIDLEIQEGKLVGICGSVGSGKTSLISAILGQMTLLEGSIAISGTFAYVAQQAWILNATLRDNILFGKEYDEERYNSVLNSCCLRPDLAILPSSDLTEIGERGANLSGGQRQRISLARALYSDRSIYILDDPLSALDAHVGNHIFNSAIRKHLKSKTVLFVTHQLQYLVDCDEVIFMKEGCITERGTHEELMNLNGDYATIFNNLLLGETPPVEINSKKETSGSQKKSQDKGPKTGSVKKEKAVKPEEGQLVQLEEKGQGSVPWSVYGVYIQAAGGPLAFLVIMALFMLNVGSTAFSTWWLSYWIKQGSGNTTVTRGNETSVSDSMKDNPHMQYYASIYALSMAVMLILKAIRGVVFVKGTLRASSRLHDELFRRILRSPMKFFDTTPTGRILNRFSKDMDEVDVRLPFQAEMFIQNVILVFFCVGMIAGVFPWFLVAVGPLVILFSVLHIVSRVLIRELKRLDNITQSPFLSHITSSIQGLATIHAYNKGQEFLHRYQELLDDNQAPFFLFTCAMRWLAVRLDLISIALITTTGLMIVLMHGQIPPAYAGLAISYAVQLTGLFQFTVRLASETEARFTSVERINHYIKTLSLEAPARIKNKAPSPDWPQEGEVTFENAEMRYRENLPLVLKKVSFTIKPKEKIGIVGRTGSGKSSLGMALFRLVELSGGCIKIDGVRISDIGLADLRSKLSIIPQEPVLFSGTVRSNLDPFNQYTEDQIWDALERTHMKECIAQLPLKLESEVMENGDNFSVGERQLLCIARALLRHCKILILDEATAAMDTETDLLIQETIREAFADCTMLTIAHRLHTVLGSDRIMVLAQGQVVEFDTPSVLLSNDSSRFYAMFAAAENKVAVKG

Row | Structure (SMILES) | resistance of MRP5-overexpressing cells to the drug [1] | inhibition of MRP5-mediated transport of cyclic nucleotides such as cGMP [3] | also measured
1 | Sc1ncnc2nc[nH]c12 [6-mercaptopurine] | resistant |  | 
2 | Nc1ncnc2c1ncn2CCOCP(=O)(O)O [PMEA, 9-(2-phosphonylmethoxyethyl)-adenine] |  |  | transport of the drug by MRP5-transfected cells [2]: transport
3 | CCCc1nn(C)c2c(=O)[nH]c(-c3cc(S(=O)(=O)N4CCN(C)CC4)ccc3OCC)nc12 [Sildenafil] |  | inhibited | 
4 | COc1cc2c(cc1OC)-c1c/c(=N\c3c(C)cc(C)cc3C)n(C)c(=O)n1CC2 [Trequinsin] |  | inhibited | 

Continued, in another order:

Row | resistance of MRP5-overexpressing cells to the drug [1] | inhibition of MRP5-mediated transport of cyclic nucleotides such as cGMP [3] | Structure (SMILES) | also measured
5 |  | inhibited | CCCOc1ccccc1-c1nc2nn[nH]c2c(=O)[nH]1 [Zaprinast] | 
6 | resistant |  | Nc1nc2nc[nH]c2c(=S)[nH]1 [thioguanine] | 
